Measurements published in US11957759B1, “Rapidly accelerated fibrosarcoma (RAF) degrading compounds and associated methods of use” (Arvinas Operations, Inc., priority 2022, dated 2024).

Experiments:
B-RAF V600E = molecular target: T1, B-RAF V600E (Homo sapiens, UniProt P15056, V600E); experiment: Target protein degradation, assay C: T-Rex 293 cells, HA-BRAF_V600E, 384 well format; assay type: cell-based; conditions: T-Rex 293 HA-BRAF_V600E cells, 24 hours, Examples 83-269; for DC50: Assay C; for Dmax: T-REx-293, Assay C
T1 construct: expressed in transfected cells; host or cells: T-Rex 293 cells (Invitrogen #R71007)
Procedure, shortened: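 After 24 h exposure to an 11-point 1:3 series (300 nM–5 pM, 0.5% DMSO), fixed T-Rex 293 cells carrying HA-BRAF V600E (induced with 1 ng/mL doxycycline) were stained anti-HA and imaged. DC50 and Dmax were derived from BRAF intensity relative to control, and cytotoxicity from nuclear counts.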

B-RAF G466V = molecular target: T2, B-RAF G466V (Homo sapiens, UniProt P15056, G466V); experiment: Target protein degradation, assay D: T-Rex 293 cells, HA-BRAF_G466V, 384 well format; assay type: cell-based; conditions: T-Rex 293 HA-BRAF_G466V cells, 24 hours, Examples 83-269; for DC50: Assay D; for Dmax: T-REx-293, Assay D
T2 construct: expressed in transfected cells; host or cells: T-Rex 293 cells (Invitrogen #R71007)
Procedure, shortened: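 Degradation measured by high-content imaging of anti-HA immunofluorescence in fixed T-Rex 293 cells carrying inducible HA-BRAF G466V (1 ng/mL doxycycline), after 24 h PROTAC exposure at 37 °C over 300 nM–5 pM (1:3, 11 points, 0.5% DMSO). Outputs DC50 and Dmax as % of control; nuclei counts against DMSO wells gauge toxicity.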

T2 sequence (P15056 whole entry G466V): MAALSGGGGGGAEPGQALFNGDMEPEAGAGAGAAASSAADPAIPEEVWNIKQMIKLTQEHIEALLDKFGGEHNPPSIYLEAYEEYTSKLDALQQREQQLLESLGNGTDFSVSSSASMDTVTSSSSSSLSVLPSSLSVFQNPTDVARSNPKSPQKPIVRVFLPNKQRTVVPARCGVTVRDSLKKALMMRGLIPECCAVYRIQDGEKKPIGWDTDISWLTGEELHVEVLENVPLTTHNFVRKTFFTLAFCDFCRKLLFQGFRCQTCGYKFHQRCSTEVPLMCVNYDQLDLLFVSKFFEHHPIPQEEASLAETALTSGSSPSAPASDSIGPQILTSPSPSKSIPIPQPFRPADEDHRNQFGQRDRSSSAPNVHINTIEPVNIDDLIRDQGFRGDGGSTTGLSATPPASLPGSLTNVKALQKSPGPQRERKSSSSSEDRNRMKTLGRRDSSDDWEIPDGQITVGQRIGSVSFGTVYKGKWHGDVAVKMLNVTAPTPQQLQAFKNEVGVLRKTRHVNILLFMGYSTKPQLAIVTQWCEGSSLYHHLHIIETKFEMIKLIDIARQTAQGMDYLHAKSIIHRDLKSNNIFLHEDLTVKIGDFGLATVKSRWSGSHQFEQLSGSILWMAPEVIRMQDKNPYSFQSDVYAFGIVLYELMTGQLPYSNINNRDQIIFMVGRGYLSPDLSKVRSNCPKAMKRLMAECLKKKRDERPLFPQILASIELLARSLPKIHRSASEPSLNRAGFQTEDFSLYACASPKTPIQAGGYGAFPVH
T1 sequence (P15056 whole entry V600E): as the sequence (P15056 whole entry G466V) above, with V466G, V600E counted along it

Row | DC50 (B-RAF V600E) [nM] | Dmax (B-RAF V600E) [%] | DC50 (B-RAF G466V) [nM] | Dmax (B-RAF G466V) [%] | SMILES
1 | 50 to 500 | ≤ 35 | 1 to 10 | ≤ 35 | N#Cc1c(NS(=O)(=O)N2CC[C@@H](F)C2)ccc(F)c1Oc1ccc2ncn(-c3ccc(N4CC(CN5CC(c6ccc7c(c6)CN([C@@H]6CCC(=O)NC6=O)C7=O)C5)C4)cc3)c(=O)c2c1 [Example 205, (3R)-N-(2-cyano-3-{[3-(4-{3-[(3-{2-[(3R)-2,6-dioxopiperidin-3-yl]-1-oxo-2,3-dihydro-1H-isoindol-5-yl}azetidin-1-yl)methyl]azetidin-1-yl}phenyl)-4-oxo-3,4-dihydroquinazolin-6-yl]oxy}-4-fluorophenyl)-3-fluoropyrrolidine-1-sulfonamide]
2 | 50 to 500 |  | 1 to 10 |  | N#Cc1c(NS(=O)(=O)N2CC[C@@H](F)C2)ccc(F)c1Oc1ccc2ncn(-c3ccc(N4CC(CN5CCN(C6CCN(c7ccc8c(c7)CN(C7CCC(=O)NC7=O)C8=O)CC6)CC5)C4)cc3)c(=O)c2c1 (single isomer, unassigned) [Example 198, (3R)-N-[2-cyano-3-({3-[4-(3-{[4-(1-{2-[(3R*)-2,6-dioxopiperidin-3-yl]-1-oxo-2,3-dihydro-1H-isoindol-5-yl}piperidin-4-yl)piperazin-1-yl]methyl}azetidin-1-yl)phenyl]-4-oxo-3,4-dihydroquinazolin-6-yl}oxy)-4-fluorophenyl]-3-fluoropyrrolidine-1-sulfonamide]
3 | 50 to 500 | 35 to 70 | ≤ 1 | 35 to 70 | N#Cc1c(NS(=O)(=O)N2CC[C@@H](F)C2)ccc(F)c1Oc1ccc2ncn(-c3cnc(N4CCC(CN5CC6(CCN(c7ccc8c(c7)CN(C7CCC(=O)NC7=O)C8=O)CC6)C5)CC4)nc3)c(=O)c2c1 (stereo partly drawn) [Example 132, (3R)-N-{2-cyano-3-[(3-{2-[4-({7-[2-(2,6-dioxopiperidin-3-yl)-1-oxo-2,3-dihydro-1H-isoindol-5-yl]-2,7-diazaspiro[3.5]nonan-2-yl}methyl)piperidin-1-yl]pyrimidin-5-yl}-4-oxo-3,4-dihydroquinazolin-6-yl)oxy]-4-fluorophenyl}-3-fluoropyrrolidine-1-sulfonamide]
4 | 50 to 500 | 35 to 70 | 1 to 10 | ≥ 70 | N#Cc1c(NS(=O)(=O)N2CC[C@@H](F)C2)ccc(F)c1Oc1ccc2ncn(-c3cccc(N4CCN(CC5CN(c6ccc7c(c6)CN([C@H]6CCC(=O)NC6=O)C7=O)C5)CC4)c3)c(=O)c2c1 [Example 254, (3R)-N-(2-cyano-3-{[3-(3-{4-[(1-{2-[(3S)-2,6-dioxopiperidin-3-yl]-1-oxo-2,3-dihydro-1H-isoindol-5-yl}azetidin-3-yl)methyl]piperazin-1-yl}phenyl)-4-oxo-3,4-dihydroquinazolin-6-yl]oxy}-4-fluorophenyl)-3-fluoropyrrolidine-1-sulfonamide]
5 | 5 to 50 | 35 to 70 | 1 to 10 | 35 to 70 | O=C1CCC(N2Cc3cc(N4CCC(CN5CCN(c6ccc(-n7cnc8ccc(Oc9c(F)ccc(NS(=O)(=O)N%10CC[C@@H](F)C%10)c9F)cc8c7=O)cc6)CC5)CC4)ccc3C2=O)C(=O)N1 (stereo partly drawn) [Example 177, (3R)—N-{3-[(3-{4-[4-({1-[2-(2,6-dioxopiperidin-3-yl)-1-oxo-2,3-dihydro-1H-isoindol-5-yl]piperidin-4-yl}methyl)piperazin-1-yl]phenyl}-4-oxo-3,4-dihydroquinazolin-6-yl)oxy]-2,4-difluorophenyl}-3-fluoropyrrolidine-1-sulfonamide]
6 | 50 to 500 | 35 to 70 | ≤ 1 | ≤ 35 | N#Cc1c(NS(=O)(=O)N2CC[C@@H](F)C2)ccc(F)c1Oc1ccc2ncn(-c3ccc(N4CCN(CCCOc5ccc6c(c5)C(=O)N(C5CCC(=O)NC5=O)C6=O)CC4)nc3)c(=O)c2c1 (stereo partly drawn) [Example 164, (3R)-N-{2-cyano-3-[(3-{6-[4-(3-{[2-(2,6-dioxopiperidin-3-yl)-1,3-dioxo-2,3-dihydro-1H-isoindol-5-yl]oxy}propyl)piperazin--1-yl]pyridin-3-yl}-4-oxo-3,4-dihydroquinazolin-6-yl)oxy]-4-fluorophenyl}-3-fluoropyrrolidine-1-sulfonamide]
7 | 5 to 50 | 35 to 70 | 1 to 10 | 35 to 70 | N#Cc1c(NS(=O)(=O)N2CC[C@@H](F)C2)ccc(F)c1Oc1ccc2ncn(-c3ccc(N4CCN(CC5CN(c6ccc7c(c6)CN([C@@H]6CCC(=O)NC6=O)C7=O)C5)CC4)cc3)c(=O)c2c1 [Example 107, (3R)-N-(2-cyano-3-{[3-(4-{4-[(1-{2-[(3R)-2,6-dioxopiperidin-3-yl]-1-oxo-2,3-dihydro-1H-isoindol-5-yl}azetidin-3-yl)methyl]piperazin-1-yl}phenyl)-4-oxo-3,4-dihydroquinazolin-6-yl]oxy}-4-fluorophenyl)-3-fluoropyrrolidine-1-sulfonamide]
8 | 50 to 500 | 35 to 70 | > 30 |  | N#Cc1c(NS(=O)(=O)N2CC[C@@H](F)C2)ccc(F)c1Oc1ccc2ncn(-c3cnc(N4CCC(CC5CCCN5c5ccc6c(c5)C(=O)N(C5CCC(=O)NC5=O)C6=O)CC4)nc3)c(=O)c2c1 (stereo partly drawn) [Example 156, (3R)-N-{2-cyano-3-[(3-{2-[4-({1-[2-(2,6-dioxopiperidin-3-yl)-1,3-dioxo-2,3-dihydro-1H-isoindol-5-yl]pyrrolidin-2-yl}methyl)piperidin-1-yl]pyrimidin-5-yl}-4-oxo-3,4-dihydroquinazolin-6-yl)oxy]-4-fluorophenyl}-3-fluoropyrrolidine-1-sulfonamide]
9 | 50 to 500 | 35 to 70 | 1 to 10 | ≥ 70 | N#Cc1c(NS(=O)(=O)N2CC[C@@H](F)C2)ccc(F)c1Oc1ccc2ncn(-c3ccc(C4CCN(CC5CN(c6ccc7c(c6)CN([C@H]6CCC(=O)NC6=O)C7=O)C5)CC4)cc3)c(=O)c2c1 [Example 256, (3R)-N-(2-cyano-3-([3-(4-{1-[(1-{2-[(3S)-2,6-dioxopiperidin-3-yl]-1-oxo-2,3-dihydro-1H-isoindol-5-yl}azetidin-3-yl)methyl]piperidin-4-yl}phenyl)-4-oxo-3,4-dihydroquinazolin-6-yl]oxy}-4-fluorophenyl)-3-fluoropyrrolidine-1-sulfonamide]
10 | 50 to 500 | ≤ 35 | 10 to 30 | 35 to 70 | N#Cc1c(NS(=O)(=O)N2CC[C@@H](F)C2)ccc(F)c1Oc1ccc2ncn(-c3ccc(N4CCN(c5cc(N6CCN(c7ccc8c(c7)C(=O)N(C7CCC(=O)NC7=O)C8=O)CC6)ncn5)CC4)nc3)c(=O)c2c1 (stereo partly drawn) [Example 168, (3R)-N-{2-cyano-3-[(3-(6-[4-(6-{4-[2-(2,6-dioxopiperidin-3-yl)-1,3-dioxo-2,3-dihydro-1H-isoindol-5-yl]piperazin-1-yl}pyrimidin-4-yl)piperazin-1-yl]pyridin-3-yl}-4-oxo-3,4-dihydroquinazolin-6-yl)oxy]-4-fluorophenyl}-3-fluoropyrrolidine-1-sulfonamide]
11 | 50 to 500 | 35 to 70 | 1 to 10 | ≤ 35 | N#Cc1c(NS(=O)(=O)N2CC[C@@H](F)C2)ccc(F)c1Oc1ccc2ncn(-c3ccc(N4CCC(CN5CCN(c6ccc7c(c6)CN([C@H]6CCC(=O)NC6=O)C7=O)CC5)C4)cc3)c(=O)c2c1 (stereo partly drawn) [Example 217, (3R)-N-(2-cyano-3-{[3-(4-{3-[(4-{2-[(3S)-2,6-dioxopiperidin-3-yl]-1-oxo-2,3-dihydro-1H-isoindol-5-yl}piperazin-1-yl)methyl]pyrrolidin-1-yl}phenyl)-4-oxo-3,4-dihydroquinazolin-6-yl]oxy}-4-fluorophenyl)-3-fluoropyrrolidine-1-sulfonamide]
12 | 50 to 500 | 35 to 70 | 10 to 30 | 35 to 70 | COCCN(CC1CCN(c2ccc(-n3cnc4ccc(Oc5c(F)ccc(NS(=O)(=O)N6CC[C@@H](F)C6)c5C#N)cc4c3=O)cc2)CC1)[C@H]1C[C@@H](Oc2ccc3c(c2)CN([C@H]2CCC(=O)NC2=O)C3=O)C1 [Example 267, (3R)-N-[2-cyano-4-fluoro-3-({3-[4-(4-{[(2-methoxyethyl)[(1r,3r)-3-({2-[(3S)-2,6-dioxopiperidin-3-yl]-1-oxo-2,3-dihydro-1H-isoindol-5-yl}oxy)cyclobutyl]amino]methyl}piperidin-1-yl)phenyl]-4-oxo-3,4-dihydroquinazolin-6-yl}oxy)phenyl]-3-fluoropyrrolidine-1-sulfonamide]
13 | 5 to 50 | 35 to 70 | 1 to 10 | 35 to 70 | N#Cc1c(NS(=O)(=O)N2CC[C@@H](F)C2)ccc(F)c1Oc1ccc2ncn(-c3ccc(N4CCN(CC5CCN(c6ccc(C7CCC(=O)NC7=O)cc6F)CC5)CC4)cc3)c(=O)c2c1 (single isomer, unassigned) [Example 112, (3R)-N-(2-cyano-3-{[3-(4-{4-[(1-{4-[(3R*)-2,6-dioxopiperidin-3-yl]-2-fluorophenyl}piperidin-4-yl)methyl]piperazin-1-yl}phenyl)-4-oxo-3,4-dihydroquinazolin-6-yl]oxy}-4-fluorophenyl)-3-fluoropyrrolidine-1-sulfonamide]
